# From patent US8093231B2, “Sulfonylethyl phosphorodiamidates” (Telik, Inc., priority 2004, dated 2012)
# Like-named read-outs stand apart in the source and are kept apart here.
# Legend:
# Type in all cases: cell-based, human
# MX-1 (breast carcinoma) = test: Cytotoxicity/growth inhibition assay, MX-1; settings: read-out: IC50 (MX-1)
# Text: (§1) The human cancer cell lines DLD-1 (colorectal adenocarcinoma), LNCap (prostate carcinoma), and OVCAR-3 (ovarian carcinoma) were obtained from the American Type Culture Collection, Manassas, Va., U.S.A., and HL-60 (promyeloid myelocytic leukemia), MX-1 (breast carcinoma), P388, and P388ADR from the National Cancer Institute, Bethesda, Md., U.S.A. Carboplatin, doxorubicin, and melphalan were obtained from Sigma-Aldrich Chemical Company, St. Louis, Mo., U.S.A. The CellTiter-Glo assay kit was obtained from Promega Corporation, Madison, Wis., U.S.A., and the Cellular DNA Cytometric Analysis Reagent Kit from Roche Diagnostics Corporation, Indianapolis, Ind., U.S.A. Lambda DNA was obtained from New England Biolabs, Beverly, Mass., U.S.A., and SYBR-Gold from Molecular Probes, Inc., Eugene, Oreg., U.S.A. The DNeasy Tissue Kit was obtained from Qiagen Inc., Valencia, Calif., U.S.A., and AmpliTaq Gold DNA polymerase and PCR reagents from Applied Biosystems, Foster City, Calif., U.S.A. All products were used in accordance with manufacturer's directions. All assays were conducted in triplicate wells, with dimethyl sulfoxide (DMSO) solvent control. The extent of cell growth was expressed as a percentage of the signal from the solvent control wells.
# (§2) Log-phase cells were trypsinized, collected by centrifugation, and resuspended in a small volume of fresh medium, and the density of viable cells was determined following Trypan Blue staining. Cells were diluted in fresh media (3×10^3 cells/mL for MX-1, 3×10^3 cells/mL for DLD-1, and 6×10^3 cells/mL for LNCap cells), the test compounds (concentrations between 0.1 and 200 μM, dissolved in DMSO, 50 μL) added immediately after dilution to achieve a final DMSO concentration of 0.5%, then the suspensions added at 150 μL/well to 96-well plates, and incubated for several hours to allow attachment in the case of adherent cells. The cells were cultured for approximately three doubling times (3 days for MX-1 and 4 days for DLD-1 and LNCap). The cells were then collected by centrifugation, and 100 μL of the culture supernatant was replaced by the CellTiter-Glo reagent. After incubation for 15 minutes at room temperature, and the plate was read with a luminometer.
# [1] = system: DLD-1 (colorectal adenocarcinoma); test: Cytotoxicity/growth inhibition assay, DLD-1; settings: read-out: IC50 (DLD-1)
# Text: as §1, §2
# [2] = system: LNCap (prostate carcinoma); test: Cytotoxicity/growth inhibition assay, LNCap; settings: read-out: IC50 (LNCap)
# Text: as §1, §2
# [3] = MX-1 cells, 3 days culture, CellTiter-Glo, 0.1-200 μM tested
# [4] = DLD-1 cells, 4 days culture, CellTiter-Glo, 0.1-200 μM tested
# [5] = LNCap cells, 4 days culture, CellTiter-Glo, 0.1-200 μM tested
Compound,IC50 (MX-1 (breast carcinoma); [3]),"IC50 [1, 4]","IC50 [2, 5]","IC50 (MX-1 (breast carcinoma); Homo sapiens, MX1, 72 h)","IC50 ([1]; Homo sapiens, DLD-1, 96 h)","IC50 ([2]; Homo sapiens, LNCaP, 96 h)"
O=P(OCCS(=O)(=O)C1CCCC1)(N(CCCl)CCCl)N(CCCl)CCCl [Compound 10A],14.4 µM,7.7 µM,43 µM,–,–,–
O=P(OCCS(=O)(=O)c1ccccc1S(=O)(=O)CCOP(=O)(N(CCCl)CCCl)N(CCCl)CCCl)(N(CCCl)CCCl)N(CCCl)CCCl [Compound 10B],10.8 µM,6.1 µM,1.9 µM,–,–,–
O=P(OCCS(=O)(=O)C1CCCCC1)(N(CCCl)CCCl)N(CCCl)CCCl [Compound 11A],10.4 µM,4 µM,18.1 µM,–,–,–
O=P(OCCS(=O)(=O)c1cccc(S(=O)(=O)CCOP(=O)(N(CCCl)CCCl)N(CCCl)CCCl)c1)(N(CCCl)CCCl)N(CCCl)CCCl [Compound 11B],3 µM,2.1 µM,4.5 µM,–,–,–
CCCCCCCCS(=O)(=O)CCOP(=O)(N(CCCl)CCCl)N(CCCl)CCCl [Compound 12A],13.9 µM,3.5 µM,14.1 µM,–,–,–
O=P(OCCS(=O)(=O)c1ccc(S(=O)(=O)CCOP(=O)(N(CCCl)CCCl)N(CCCl)CCCl)cc1)(N(CCCl)CCCl)N(CCCl)CCCl [Compound 12B],4.3 µM,1.9 µM,7.1 µM,–,–,–
O=P(OCCS(=O)(=O)Cc1ccccc1CS(=O)(=O)CCOP(=O)(N(CCCl)CCCl)N(CCCl)CCCl)(N(CCCl)CCCl)N(CCCl)CCCl [Compound 13B],1.9 µM,2.3 µM,4.7 µM,–,–,–
"O=C(O)CS(=O)(=O)CCOP(=O)(N(CCCl)CCCl)N(CCCl)CCCl [Compound 14A, 2-[[2-[[bis[bis(2-chloroethyl)amino]phosphinyl]oxy]-ethyl]sulfonyl]acetic acid]",–,–,–,62.2 µM,17.6 µM,≥ 200 µM
O=P(OCCS(=O)(=O)Cc1cccc(CS(=O)(=O)CCOP(=O)(N(CCCl)CCCl)N(CCCl)CCCl)c1)(N(CCCl)CCCl)N(CCCl)CCCl [Compound 14B],2.3 µM,3.2 µM,5.7 µM,–,–,–
O=P(OCCS(=O)(=O)Cc1ccc(CS(=O)(=O)CCOP(=O)(N(CCCl)CCCl)N(CCCl)CCCl)cc1)(N(CCCl)CCCl)N(CCCl)CCCl [Compound 15B],1.4 µM,2.4 µM,4.4 µM,–,–,–
O=P(OCCS(=O)(=O)CCO)(N(CCCl)CCCl)N(CCCl)CCCl [Compound 16A],13 µM,9.6 µM,36.4 µM,–,–,–
O=[N+]([O-])c1cc(CS(=O)(=O)CCOP(=O)(N(CCCl)CCCl)N(CCCl)CCCl)cc(CS(=O)(=O)CCOP(=O)(N(CCCl)CCCl)N(CCCl)CCCl)c1 [Compound 16B],2.9 µM,4.5 µM,9.2 µM,–,–,–
CC(=O)NCCS(=O)(=O)CCOP(=O)(N(CCCl)CCCl)N(CCCl)CCCl [Compound 17A],6.3 µM,4.2 µM,13.9 µM,–,–,–
Nc1cc(CS(=O)(=O)CCOP(=O)(N(CCCl)CCCl)N(CCCl)CCCl)cc(CS(=O)(=O)CCOP(=O)(N(CCCl)CCCl)N(CCCl)CCCl)c1 [Compound 17B],6.2 µM,4.6 µM,18.6 µM,–,–,–
O=C(O)CCC(=O)Nc1cc(CS(=O)(=O)CCOP(=O)(N(CCCl)CCCl)N(CCCl)CCCl)cc(CS(=O)(=O)CCOP(=O)(N(CCCl)CCCl)N(CCCl)CCCl)c1 [Compound 18B],8.4 µM,2.7 µM,49.8 µM,–,–,–
O=C(CS(=O)(=O)CCOP(=O)(N(CCCl)CCCl)N(CCCl)CCCl)N1CCN(Cc2ccccc2)CC1 [Compound 19A],14.8 µM,8.1 µM,17.8 µM,–,–,–
NCC(=O)Nc1cc(CS(=O)(=O)CCOP(=O)(N(CCCl)CCCl)N(CCCl)CCCl)cc(CS(=O)(=O)CCOP(=O)(N(CCCl)CCCl)N(CCCl)CCCl)c1 [Compound 19B],7.6 µM,3.8 µM,52 µM,–,–,–
O=C(CS(=O)(=O)CCOP(=O)(N(CCCl)CCCl)N(CCCl)CCCl)Nc1ccc([N+](=O)[O-])cc1 [Compound 20A],4.3 µM,2.8 µM,3.6 µM,–,–,–
CN(C)CC(=O)Nc1cc(CS(=O)(=O)CCOP(=O)(N(CCCl)CCCl)N(CCCl)CCCl)cc(CS(=O)(=O)CCOP(=O)(N(CCCl)CCCl)N(CCCl)CCCl)c1 [Compound 20B],5.1 µM,4 µM,33.3 µM,–,–,–

Compound,IC50 (MX-1 (breast carcinoma); [3]),"IC50 [1, 4]","IC50 [2, 5]","IC50 (MX-1 (breast carcinoma); Homo sapiens, MX1, 72 h)","IC50 ([1]; Homo sapiens, DLD-1, 96 h)","IC50 ([2]; Homo sapiens, LNCaP, 96 h)"
O=C(CS(=O)(=O)CCOP(=O)(N(CCCl)CCCl)N(CCCl)CCCl)Nc1ccc([N+](=O)[O-])c(C(F)(F)F)c1 [Compound 21A],4.2 µM,2.8 µM,6.3 µM,–,–,–
O=C(Nc1cc(CS(=O)(=O)CCOP(=O)(N(CCCl)CCCl)N(CCCl)CCCl)cc(CS(=O)(=O)CCOP(=O)(N(CCCl)CCCl)N(CCCl)CCCl)c1)C1CCCNC1 (stereo not drawn) [Compound 21B],14.9 µM,4.1 µM,132 µM,–,–,–
CN1CCN(C(=O)CS(=O)(=O)CCOP(=O)(N(CCCl)CCCl)N(CCCl)CCCl)CC1 [Compound 22A],23.7 µM,8.4 µM,38.5 µM,–,–,–
O=C(Nc1cc(CS(=O)(=O)CCOP(=O)(N(CCCl)CCCl)N(CCCl)CCCl)cc(CS(=O)(=O)CCOP(=O)(N(CCCl)CCCl)N(CCCl)CCCl)c1)c1cccnc1 [Compound 22B],7 µM,2.5 µM,40.8 µM,–,–,–
"O=P(OCCS(=O)(=O)c1cccc2c(S(=O)(=O)CCOP(=O)(N(CCCl)CCCl)N(CCCl)CCCl)cccc12)(N(CCCl)CCCl)N(CCCl)CCCl [Compound 23B, 1,5-di[[2-[[bis[bis(2-chloroethyl)amino]phosphinyl]oxy]ethyl]sulfonyl]naphthalene]",–,–,–,1.1 µM,0.7 µM,3.8 µM
O=C(CS(=O)(=O)CCOP(=O)(N(CCCl)CCCl)N(CCCl)CCCl)Nc1ccccn1 [Compound 24A],11.2 µM,5.5 µM,12.1 µM,–,–,–
CC(C)(C)OC(=O)[C@@H](Cc1ccccc1)NC(=O)CS(=O)(=O)CCOP(=O)(N(CCCl)CCCl)N(CCCl)CCCl [Compound 25A],5.6 µM,3.7 µM,18.9 µM,–,–,–
O=C(CS(=O)(=O)CCOP(=O)(N(CCCl)CCCl)N(CCCl)CCCl)NC(Cc1ccccc1)C(=O)O (stereo not drawn) [Compound 26A],29.4 µM,8.4 µM,76.8 µM,–,–,–
CC(C)(C)OC(=O)NCCCC[C@H](NC(=O)CS(=O)(=O)CCOP(=O)(N(CCCl)CCCl)N(CCCl)CCCl)C(=O)OC(C)(C)C [Compound 27A],6.2 µM,3.6 µM,15.5 µM,–,–,–
CN(CC(=O)OC(C)(C)C)C(=O)CS(=O)(=O)CCOP(=O)(N(CCCl)CCCl)N(CCCl)CCCl [Compound 28A],9 µM,5.1 µM,35.2 µM,–,–,–
O=C(O)CCS(=O)(=O)CCOP(=O)(N(CCCl)CCCl)N(CCCl)CCCl [Compound 29A],23 µM,11.5 µM,66.4 µM,–,–,–
COC(=O)c1ccc(NC(=O)CS(=O)(=O)CCOP(=O)(N(CCCl)CCCl)N(CCCl)CCCl)cc1 [Compound 30A],9.1 µM,6.5 µM,13.2 µM,–,–,–
N[C@@H](CCCNC(=O)CS(=O)(=O)CCOP(=O)(N(CCCl)CCCl)N(CCCl)CCCl)C(=O)O [Compound 32A],41.2 µM,11.3 µM,177 µM,–,–,–
O=C(CS(=O)(=O)CCOP(=O)(N(CCCl)CCCl)N(CCCl)CCCl)Nc1ccc(C(=O)O)cc1 [Compound 33A],20.6 µM,8.6 µM,98.6 µM,–,–,–
CN(CC(=O)O)C(=O)CS(=O)(=O)CCOP(=O)(N(CCCl)CCCl)N(CCCl)CCCl [Compound 34A],9 µM,12 µM,97.2 µM,–,–,–
CC(C)(C)OC(=O)CCNC(=O)CS(=O)(=O)CCOP(=O)(N(CCCl)CCCl)N(CCCl)CCCl [Compound 37A],8 µM,8 µM,28.9 µM,–,–,–
CC(C)(C)OC(=O)CNC(=O)CS(=O)(=O)CCOP(=O)(N(CCCl)CCCl)N(CCCl)CCCl [Compound 38A],8 µM,7.6 µM,23.3 µM,–,–,–
CC(=O)N[C@@H](CS(=O)(=O)CCOP(=O)(N(CCCl)CCCl)N(CCCl)CCCl)C(=O)O [Compound 73A],29.6 µM,18 µM,73.2 µM,–,–,–
CC(=O)NC(C(=O)O)C(C)(C)S(=O)(=O)CCOP(=O)(N(CCCl)CCCl)N(CCCl)CCCl (stereo not drawn) [Compound 74A],46.7 µM,27.2 µM,≥ 200 µM,–,–,–
